These results are taken from ChEMBL document CHEMBL4138079, “New cycloartane type-triterpenoids from the areal parts of Caragana sukiensis and their biological activities” (Eur J Med Chem, 2017).

One data set concerns HeLa. Description: Cytotoxicity against human HeLa cells assessed as reduction in cell viability after 48 hrs by MTT assay. The class given is functional, cell-based.
Another data set deals with A549. Description: Cytotoxicity against human A549 cells assessed as reduction in cell viability after 48 hrs by MTT assay. The conditions noted are these: A549, 48 h. The data set is classed as functional, cell-based.
Another data set relates to DU-145. Nature of the data set: Cytotoxicity against human DU145 cells assessed as reduction in cell viability after 48 hrs by MTT assay. The data set is classed as functional, cell-based. Particulars: DU-145, 48 h.
The test system of another data set is MCF7. Description: Cytotoxicity against human MCF7 cells assessed as reduction in cell viability after 48 hrs by MTT assay. Particulars: MCF7, 48 h. The data set is classed as functional, cell-based.
For the next data set, the system named is HEK293. Nature of the data set: Cytotoxicity against human HEK293 cells assessed as reduction in cell viability after 48 hrs by MTT assay. The data set is classed as cell-based. The conditions noted are these: HEK293, 48 h.
In data set [1] the test system is Spodoptera litura. Nature of the data set: Antifeedant activity in Spodoptera litura third-instar larvae assessed as increase in feeding deterrence by measuring antifeedant index at 5 ug/cm2 after 24 hrs by leaf disk method. The class given is functional.
Data set [2] deals with Spodoptera litura. Description: Antifeedant activity in Spodoptera litura third-instar larvae assessed as increase in feeding deterrence after 24 hrs by leaf disk method. The data set is classed as functional.
Data set [3] deals with Spodoptera litura. Description: Insecticidal activity in Spodoptera litura third-instar larvae assessed as larval mortality at 5 ug/cm2 after 24 hrs by leaf disk method relative to control. The conditions noted are these: foliar. The class given is functional.
The test system of data set [4] is Spodoptera litura. Nature of the data set: Antifeedant activity in Spodoptera litura third-instar larvae assessed as larval duration time after 24 hrs by leaf disk method (reference value: 10.1 +/- 0.1 day). The data set is classed as functional.
Data set [5] concerns Spodoptera litura. Nature of the data set: Antifeedant activity in Spodoptera litura assessed as pupal weight after 24 hrs by leaf disk method (reference value: 0.245 +/- 0.02 g). The data set is classed as functional.
Data set [6] concerns Spodoptera litura. Description: Antifeedant activity in Spodoptera litura assessed as pupal mortality after 24 hrs by leaf disk method (reference value: 0%). The class given is functional.
Data set [7] relates to Spodoptera litura. Description: Toxicity in Spodoptera litura third-instar larvae assessed as increase in larval mortality after 24 hrs by leaf disk method. The data set is classed as organism-based. The conditions noted are these: in vivo.

Turning to `COc1cccc2c1C(=O)c1c(O)c3c(c(O)c1C2=O)C[C@@](O)(C(=O)CO)C[C@@H]3O[C@H]1C[C@H](N)[C@H](O)[C@H](C)O1` [DOXORUBICIN], the results for the IC50 in the data set with HeLa, in the data set with A549 and with DU-145 were 1.09 µM, 1.95 µM and 1.62 µM, respectively.
In the case of `C[C@@H]1C[C@H]([C@H](O)C(C)(C)O)O[C@H]2OC(=O)[C@@]3(C)[C@@H]4CC[C@H]5C(C)(C)C(=O)C=C[C@@]56C[C@@]46CC[C@]3(C)[C@H]21`, the IC50 with HeLa was 63.3 µM; in the data set with A549, 29.4 µM; in the data set with MCF7, 27.2 µM; with DU-145 it was 36.1 µM; in the data set with HEK293, 158 µM. Moreover, the Activity_index in the data set on Spodoptera litura [1] is on record as 61.2. For the same compound, the ED50 with Spodoptera litura [2] was 12.239 microg/cm2. Moreover, the mortality at 5 µg/cm2 in the data set with Spodoptera litura [3] was 11.3%. Besides, the Time with Spodoptera litura [4] amounted to 11.9 days. The Activity in the data set on Spodoptera litura [5] was determined as 0.226 g. In addition, the mortality with Spodoptera litura [6] is 91.3%.
Turning to `C[C@@H]1C[C@H]([C@H](O)C(C)(C)O)O[C@H]2O[C@H](O)[C@@]3(C)[C@@H]4CC[C@H]5C(C)(C)[C@@H](O[C@@H]6OC[C@@H](O)[C@H](O)[C@H]6O)CC[C@@]56C[C@@]46CC[C@]3(C)[C@H]21`, the IC50 amounted to 57 µM with HeLa; 37.5 µM in the data set on A549; 43.2 µM with MCF7; 59.2 µM in the data set on DU-145; 79.2 µM in the data set with HEK293. Moreover, in the data set on Spodoptera litura [1], the Activity_index was determined as 59.3. Further, in the data set on Spodoptera litura [2], the ED50 is given as 3.61 microg/cm2. Also, the mortality at 5 µg/cm2 with Spodoptera litura [3] was 19.4%. For the same compound, the Time in the data set on Spodoptera litura [4] was 11.8 days. In addition, the Activity in the data set with Spodoptera litura [5] came to 0.264 g. In the data set on Spodoptera litura [6], the mortality is 92.4%.
As for `CC1(C)CC[C@]2(C)CC[C@]3(C)C(=CC[C@@H]4[C@@]5(C)CC[C@H](O)C(C)(C)[C@@H]5CC[C@]43C)[C@@H]2C1` [beta-AMYRIN], the IC50 with HeLa came out at 27.9 µM; in the data set on A549 it was 23.6 µM; in the data set on MCF7, 35.3 µM; with DU-145 it was 27.9 µM; in the data set with HEK293 it was 94.4 µM. Moreover, the Activity_index in the data set on Spodoptera litura [1] was 59.4. In addition, the ED50 in the data set on Spodoptera litura [2] is 28.69 microg/cm2. Also, the mortality at 5 µg/cm2 with Spodoptera litura [3] worked out at 10.9%. Further, in the data set with Spodoptera litura [4], the Time came to 11.5 days. For the same compound, the Activity in the data set with Spodoptera litura [5] came to 0.232 g. In the data set with Spodoptera litura [6], the mortality stood at 89.9%.
For the compound `C[C@@H]1C[C@H]([C@H](O)C(C)(C)O)O[C@H]2O[C@H](O)[C@@]3(C)[C@@H]4CC[C@H]5C(C)(C)[C@@H](O)CC[C@@]56C[C@@]46CC[C@]3(C)[C@H]21`, the IC50 in the data set with HeLa came out at 63.8 µM; in the data set with A549, 51.1 µM; in the data set with MCF7, 58.2 µM; in the data set on DU-145, 62.1 µM; in the data set on HEK293, 123 µM. Further, the Activity_index in the data set on Spodoptera litura [1] came to 91.8. Moreover, the ED50 in the data set with Spodoptera litura [2] was determined as 0.59 microg/cm2. Besides, the mortality at 5 µg/cm2 with Spodoptera litura [3] is 86.7%. For the same compound, the LD50 with Spodoptera litura [7] turned out to be 0.84 microg/cm2.
For `C[C@@H]1C[C@H]([C@H](O)C(C)(C)O)O[C@H]2O[C@H](O)[C@@]3(C)[C@@H]4CC[C@H]5C(C)(C)C(=O)CC[C@@]56C[C@@]46CC[C@]3(C)[C@H]21`, the 50% inhibitory concentration (IC50) in the data set on HeLa amounted to 55.3 µM; in the data set with A549 it was 36.7 µM; with MCF7, 38.9 µM; in the data set on DU-145, 53.7 µM; in the data set with HEK293 it was 167 µM. In the data set with Spodoptera litura [1], the Activity_index is reported as 56.4. In the data set on Spodoptera litura [2], the ED50 stood at 1.195 microg/cm2. Further, the mortality at 5 µg/cm2 in the data set with Spodoptera litura [3] is 11.5%. The Time in the data set on Spodoptera litura [4] was found to be 12.6 days. In addition, the Activity with Spodoptera litura [5] came to 0.221 g. The mortality in the data set with Spodoptera litura [6] stood at 88.5%.
For `CC1(C)C[C@@H](O)[C@]2(C)CC[C@]3(C)C(=CC[C@@H]4[C@@]5(C)CC[C@H](O)[C@](C)(CO)[C@@H]5CC[C@]43C)[C@@H]2C1` [SOYASAPOGENOL B], the IC50 in the data set on HeLa came to 3.49 µM; in the data set on A549, 2.1 µM; in the data set with MCF7, 2.33 µM; in the data set on DU-145, 10.9 µM; with HEK293 it was 124 µM. In addition, the Activity_index in the data set with Spodoptera litura [1] is 68.1. For the same compound, in the data set with Spodoptera litura [2], the ED50 came to 5.22 microg/cm2. Moreover, in the data set with Spodoptera litura [3], the mortality at 5 µg/cm2 was found to be 11.6%. In the data set with Spodoptera litura [4], the Time stood at 12.1 days. Further, the Activity in the data set with Spodoptera litura [5] turned out to be 0.251 g. The mortality with Spodoptera litura [6] is 96.7%.
As to `C[C@@H]1C[C@H]([C@H](O)C(C)(C)O)O[C@H]2OC(=O)[C@@]3(C)[C@@H]4CC[C@H]5C(C)(C)C(=O)CC[C@@]56C[C@@]46CC[C@]3(C)[C@H]21`, the IC50 in the data set with HeLa is 17.8 µM; in the data set on A549 it was 16.3 µM; in the data set on MCF7, 24.8 µM; with DU-145 it was 22.4 µM; in the data set on HEK293, 79.3 µM. Also, in the data set on Spodoptera litura [1], the Activity_index was 93.6. For the same compound, in the data set with Spodoptera litura [2], the ED50 is on record as 0.67 microg/cm2. Besides, the mortality at 5 µg/cm2 with Spodoptera litura [3] stood at 94.6%. The LD50 in the data set on Spodoptera litura [7] amounted to 0.91 microg/cm2.
For `CC(C)(O)[C@@H]1CC[C@](C)([C@H]2[C@@H](O)C[C@@]3(C)[C@@H]4C[C@H](O)[C@H]5C(C)(C)[C@@H](O[C@@H]6OC[C@@H](O)[C@H](O)[C@H]6O)CC[C@@]56C[C@@]46CC[C@]23C)O1`, the IC50 with HeLa was 17.4 µM; in the data set on A549, 29 µM; with MCF7, 31.2 µM; in the data set on DU-145 it was 19.6 µM; in the data set on HEK293, 99.4 µM. Moreover, in the data set with Spodoptera litura [1], the Activity_index is listed as 70.1. For the same compound, the ED50 with Spodoptera litura [2] is reported as 15.05 microg/cm2. Moreover, the mortality at 5 µg/cm2 with Spodoptera litura [3] was found to be 18.2%. Besides, in the data set on Spodoptera litura [4], the Time was determined as 13.4 days. Also, in the data set on Spodoptera litura [5], the Activity was determined as 0.212 g. Further, in the data set with Spodoptera litura [6], the mortality is 90.9%.
For `CC(=O)O[C@H]1[C@H](O[C@H]2CC[C@]34C[C@]35CC[C@]3(C)[C@@H]([C@@]6(C)CC[C@@H](C(C)(C)O)O6)[C@@H](O)C[C@@]3(C)[C@@H]5C[C@H](O)[C@H]4C2(C)C)OC[C@@H](O)[C@@H]1O`, the 50% inhibitory concentration (IC50) with HeLa stood at 9.71 µM; in the data set on A549, 2.24 µM; in the data set with MCF7, 2.93 µM; with DU-145 it was 11.3 µM; with HEK293 it was 121 µM. The Activity_index in the data set on Spodoptera litura [1] came to 64.1. For the same compound, the ED50 in the data set with Spodoptera litura [2] was 1.689 microg/cm2. In the data set on Spodoptera litura [3], the mortality at 5 µg/cm2 is 19.3%. Further, the Time with Spodoptera litura [4] is 13.4 days. Moreover, in the data set on Spodoptera litura [5], the Activity is 0.219 g. Further, the mortality in the data set on Spodoptera litura [6] was determined as 90.1%.
For `CC1(C)C[C@@H](O)[C@]2(C)CC[C@]3(C)C(=CC[C@@H]4[C@@]5(C)CCC(=O)[C@](C)(CO)[C@@H]5CC[C@]43C)[C@@H]2C1`, the IC50 was 18.6 µM with HeLa; 21.2 µM with A549; 28.7 µM in the data set on MCF7; 26 µM in the data set on DU-145; 95.6 µM in the data set with HEK293. Moreover, the Activity_index in the data set with Spodoptera litura [1] was 21.8. Besides, the mortality at 5 µg/cm2 with Spodoptera litura [3] amounted to 0%. Further, in the data set on Spodoptera litura [4], the Time turned out to be 11.1 days. Moreover, in the data set on Spodoptera litura [5], the Activity was 0.249 g. For the same compound, the mortality in the data set on Spodoptera litura [6] turned out to be 11.2%.
